Reference: PMC10703812, “Understanding the molecular mechanisms of odorant binding and activation of the human OR52 family” (Nature Communications, 2023)
Where “and” joins values, the source holds several entries; their conditions need not be identical. Identical values can stand only once.

Legend:
Assay type in all cases: cell-based, human
OR52cs = assay: cAMP signaling assay (cAMP sensor) in Hana3A cells; conditions: single experiments
Experimental: For cAMP assay, CRE luciferase assay, and surface ELISA, the full-length OR52cs construct was cloned into the pcDNA3.1 vector. The Lucy signal sequence and FLAG peptide sequence were added to the N-terminus. Mutant constructs were generated by site-directed mutagenesis. For BRET assay, eYFP was added at the C-terminus of OR52cs with a GGGGS linker. Rluc was added to Gα for resonance partner (after L99 for Gαs, and I100 for Gαolf, respectively, with GGGGS linker back and forth). […]
(§1) Hana3A cells were seeded on 96-well white microplates and transfected with OR52cs or the corresponding mutants and cAMP sensor (Promega). The medium was exchanged with CO2-independent medium (Gibco) supplemented with 0.375 mg ml^−1 D-luciferin (Nanolight) 48 h after infection, and cells were incubated in the dark at 20 °C for 2 h. Basal luminescence was detected using a Tristar 2 LB 942 multimode reader (Berthold) until it reached a plateau. Subsequently, various concentrations of odorants and forskolin (Sigma-Aldrich) were added to each well, and luminescence was measured again. Data were analyzed and plotted using GraphPad Prism 9.4.1.

OR52cs V158F/V209M = assay: cAMP signaling assay, mutant; conditions: for cAMP response: Fig.S8b source data, single experiments
Experimental: (§2) For cAMP assay, CRE luciferase assay, and surface ELISA, the full-length OR52cs construct was cloned into the pcDNA3.1 vector. The Lucy signal sequence and FLAG peptide sequence were added to the N-terminus. Mutant constructs were generated by site-directed mutagenesis. For BRET assay, eYFP was added at the C-terminus of OR52cs with a GGGGS linker. Rluc was added to Gα for resonance partner (after L99 for Gαs, and I100 for Gαolf, respectively, with GGGGS linker back and forth).
as §1

OR52cs V158F = assay: cAMP signaling assay, mutant; conditions: for cAMP response: Fig.S8b source data, single experiments
Experimental: as §2, §1

OR52cs R265A = assay: CRE luciferase assay in Hana3A cells, mutant; conditions: 100 µM carboxylic acid; Fig.S7a, single experiments
Experimental: as §2
48 h after infection, cells were treated with odorants and incubated at 37 °C for 4 h. […] All values were divided by the Renilla luciferase activity to normalize the effect of cell confluence. All data were analyzed using GraphPad Prism 9.4.1.

SMILES | cAMP response (OR52cs V158F/V209M; odorant 9.18274e-8 M) | cAMP response (OR52cs V158F/V209M; odorant 9.18274e-7 M) | cAMP response (OR52cs V158F/V209M; odorant 9.18274e-6 M) | cAMP response (OR52cs V158F/V209M; odorant 3.0303e-5 M) | cAMP response (OR52cs V158F/V209M; odorant 0.0001 M) | cAMP response (OR52cs V158F/V209M; odorant 0.001 M) | cAMP response (OR52cs V158F; odorant 9.18274e-8 M) | cAMP response (OR52cs V158F; odorant 9.18274e-7 M) | cAMP response (OR52cs V158F; odorant 9.18274e-6 M) | cAMP response (OR52cs V158F; odorant 3.0303e-5 M) | cAMP response (OR52cs V158F; odorant 0.0001 M) | cAMP response (OR52cs V158F; odorant 0.001 M) | relative fold (luciferase activity over DMSO) (OR52cs R265A) | other results
CCCC(=O)O [Butyrate] | 0.4134% and 1.119% and 0.2589% | 0.6599% and 0.9287% and 0.2324% | 1.238% and 1.86% and 0.7353% | 1.067% and 2.455% and 1.672% | 1.838% and 4.182% and 3.8607% | 12.4605% and 15.8218% and 16.2328% | 0.537% and 0.1319% and 1.733% | 0.488% and 0.3268% and 1.1839% | 0.5541% and 0.2838% and 1.329% | 0.4886% and 0.5179% and 1.414% | 0.8581% and 0.2707% and 1.963% | 2.495% and 1.981% and 6.452% | – | cAMP response (OR52cs; odorant 9.18274e-8 M, Fig.S8b source data): -0.08428% and 0.1653% and 0.2939%; cAMP response (OR52cs; odorant 9.18274e-7 M, Fig.S8b source data): -0.5369% and 0.4001% and -0.04745%; cAMP response (OR52cs; odorant 9.18274e-6 M, Fig.S8b source data): 0.134% and 0.6883% and 0.4284%; cAMP response (OR52cs; odorant 3.0303e-5 M, Fig.S8b source data): 0.1103% and 0.05302% and 0.2786%; cAMP response (OR52cs; odorant 0.0001 M, Fig.S8b source data): -0.1073% and 0.8927% and 0.1591%; cAMP response (OR52cs; odorant 0.001 M, Fig.S8b source data): 1.5929% and 1.31% and 1.1069%
CCCCCCCCCC(=O)O [Decanoate, decanoate] | – | – | – | – | – | – | – | – | – | – | – | – | 1.3086 fold and 1.135 fold and 1.747 fold and 1.1432 fold | cAMP response (OR52cs; odorant 9.18274e-6 M, Fig.1a source data): 23.4129 and 25.1996 and 45.8933
CCCCCCC(=O)O [Heptanoate, heptanoate] | 0.3154% and 0.3231% and 0.3938% | 4.347% and 1.257% and 3.311% | 29.4811% and 22.451% and 26.2109% | 75.795% and 74.3485% and 82.8548% | 83.9682% and 91.5635% and 102.817% | 81.746% and 93.3745% and 90.7212% | 0.8685% and 0.5114% and 0.9157% | 1.104% and 0.7302% and 1.422% | 3.442% and 2.688% and 4.371% | 27.9975% and 25.6918% and 43.6578% | 66.0899% and 63.5108% and 78.243% | 94.8324% and 85.8407% and 105.113% | 1.17 fold and 1.091 fold and 1.293 fold and 0.9952 fold | cAMP response (OR52cs; odorant 3.0303e-5 M, Fig.1a source data): 56.3478 and 75.8757 and 80.5266; cAMP response (OR52cs; odorant 0.0001 M, Fig.1a source data): 81.4095 and 85.4775 and 102.977; cAMP response (OR52cs; odorant 0.001 M, Fig.1a source data): 96.609 and 80.1017 and 111.088; downstream signal / selectivity (in words) (OR52cs V158F; Supplementary Fig. 8): enhanced selectivity
CCCCCC(=O)O [Hexanoate, hexanoate] | 1.222% and -0.2583% and 0.8037% | 3.048% and 0.3713% and 1.148% | 18.0149% and 8.5338% and 10.0807% | 41.8588% and 26.1015% and 26.6027% | 60.5576% and 50.8798% and 56.2545% | 83.4195% and 80.8044% and 89.7505% | 0.5855% and -0.5118% | 0.5361% and -0.697% | 0.7501% and -0.4246% | 1.164% and -0.1819% | 1.41% and -0.4498% | 3.85% and 2.176% | 1.1154 fold and 1.251 fold and 1.361 fold and 1.012 fold | response / preference (in words) (OR52cs V158F/V209M; Supplementary Fig. 8): increased responses
